One assay has as its target wild-type HIV-1 protease (Human immunodeficiency virus type 1 group M subtype B, UniProt P04585). In words: Assay for inhibition of microbial expressed HIV protease. It is filed as biochemical. The gist of the method:
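E. coli-expressed protease (5 pM) preincubated with inhibitor 30 min at room temperature in 50 mM sodium acetate pH 5.5, 100 mM NaCl, 0.1% BSA. Substrate Val-Ser-Gln-Asn-(betanapthyl)Ala-Pro-Ile-Val at 440 micromolar, 1 h at 30° C; acid-quenched, product peak area by C18 HPLC gives inhibition.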

The test system of assay [1] is acute HIV infection of T-lymphoid cells. The assay is described as follows: Assay for inhibition of HIV replication (spread assay). It is filed as cell-based, HIV-1. Conditions: Human immunodeficiency virus 1, T-lymphoid; read-out: Spread - IC95. How it is done:
• Assay for Inhibition of HIV Replication
Assays for the inhibition of acute HIV infection of T-lymphoid cells were conducted in accordance with Vacca, J. P. et al., Proc. Natl. Acad. Sci. USA 1994, 91: 4096.

The mark [2] stands for this setting: wild-type HIV-1 protease expressed in E. coli, peptide substrate, pH 5.5, read-out: Enzyme Inhibition - IC50.

SMILES strings stand for the structures. pIC50: −log10 of the molar value. Where two headings read alike, the source gives them in different places.

Usually pIC50 stands for the negative decadic logarithm of the IC50, by convention in mol/L. The IC95 is the concentration needed for an effect of 95%. On to `C#C[C@@H](CCC[C@@H](CO)N(CCC(C)C)S(=O)(=O)c1ccc(CO)cc1)NC(=O)[C@@H](NC(=O)OC)C(c1ccccc1)c1ccccc1` [Example J13, N-{(1R,5S)-1-ethynyl-6-hydroxy-5-[{[4-(hydroxymethyl)phenyl]sulfonyl}(3-methylbutyl)amino]hexyl}-Nα-(methoxycarbonyl)-β-phenyl-L-phenylalaninamide], for which the pIC50 on wild-type HIV-1 protease (setting [2]) is 11.00. Moreover, the IC95 in assay [1] came to 6 nM.

`CC[C@@H](CCC[C@@H](CO)N(CC(C)C)S(=O)(=O)c1ccc(CO)cc1)NC(=O)[C@@H](NC(=O)OC)C(c1ccc(F)cc1)c1ccc(F)cc1` [Example J20, N-{(1S,5S)-1-ethyl-6-hydroxy-5-[{[4-(hydroxymethyl)phenyl]sulfonyl}(isobutyl)amino]hexyl}-4-fluoro-β-(4-fluorophenyl)-Nα-(methoxycarbonyl)-L-phenylalaninamide]: the negative logarithm of the IC50 (pIC50) on wild-type HIV-1 protease (setting [2]) was 10.70. In addition, in assay [1], the IC95 came out at 50 nM.

On to `COC(=O)N[C@H](C(=O)N[C@H](C)CCC[C@@H](CO)N(CCC(C)C)S(=O)(=O)c1ccc(CO)cc1)C(c1ccccc1)c1ccccc1` [Example J5, N-{(1R,5S)-6-hydroxy-5-[{[4-(hydroxymethyl)phenyl]sulfonyl}(3-methylbutyl)amino]-1-methylhexyl}-Nα-(methoxycarbonyl)-β-phenyl-L-phenylalaninamide], for which the pIC50 at wild-type HIV-1 protease (setting [2]) was 9.54. Also, the IC95 in assay [1] worked out at 192 nM.

As for `COC(=O)N[C@H](C(=O)N[C@H](CCC[C@@H](CO)N(CC(C)C)S(=O)(=O)c1ccc(CO)cc1)C1CC1)C(c1ccccc1)c1ccccc1` [Example J22], the pIC50 at wild-type HIV-1 protease (setting [2]) was 10.49. Also, the IC95 in assay [1] was 15 nM.

Regarding `CCCN([C@H](CO)CCC[C@@H](NC(=O)[C@H](Cc1ccccc1Cl)NC(=O)OC)C(F)(F)F)S(=O)(=O)c1ccc(CO)cc1` [Example J43, 2-chloro-N-[(1R,5S)-6-hydroxy-5-[{[4-(hydroxymethyl)phenyl]sulfonyl}(propyl)amino]-1-(trifluoromethyl)hexyl]-Nα-(methoxycarbonyl)-L-phenylalaninamide], the pIC50 at wild-type HIV-1 protease (setting [2]) is 9.90. The IC95 in assay [1] is 116 nM.

In the case of `COC(=O)N[C@H](C(=O)N[C@@H](C)CCC[C@@H](CO)N(CCC(C)C)S(=O)(=O)c1ccc(N)c(F)c1)C(c1ccccc1)c1ccccc1` [Example D12, N-{(1S,5S)-5-[[(4-amino-3-fluorophenyl)sulfonyl](3-methylbutyl)amino]-6-hydroxy-1-methylhexyl}-Nα-(methoxycarbonyl)-β-phenyl-L-phenylalaninamide], the pIC50 at wild-type HIV-1 protease (setting [2]) was 10.92. In addition, in assay [1], the IC95 was 6 nM.

With `COC(=O)N[C@H](C(=O)N[C@H](CCC[C@@H](CO)N(CCC(C)C)S(=O)(=O)c1ccc(CO)cc1)C(F)(F)F)C(c1ccccc1)c1ccccc1` [Example J2, N-[(1R,55S)-6-hydroxy-5-[{[4-(hydroxymethyl)phenyl]sulfonyl}(3-methylbutyl)amino]-1-(trifluoromethyl)hexyl]-Nα-(methoxycarbonyl)-β-phenyl-L-phenylalaninamide], the pIC50 on wild-type HIV-1 protease (setting [2]) was 10.92. Further, in assay [1], the IC95 is 8 nM.

As for `COC(=O)N[C@H](C(=O)N[C@H](CCC[C@@H](CO)N(C(C)C)S(=O)(=O)c1ccc(CO)cc1)C1CC1)C(c1ccccc1)c1ccccc1` [Example I3, N-{(1R,5S)-1-cyclopropyl-6-hydroxy-5-[{[4-(hydroxymethyl)phenyl]sulfonyl}(isopropyl)amino]hexyl}-Nα-(methoxycarbonyl)-β-phenyl-L-phenylalaninamide], the pIC50 at wild-type HIV-1 protease (setting [2]) is 9.87. Also, in assay [1], the IC95 turned out to be 50 nM.

For the compound `COC(=O)N[C@H](C(=O)N[C@@H](C)CCC[C@@H](CO)N(CCC(C)C)S(=O)(=O)c1ccc(CO)cc1)C(c1ccccc1)c1ccccc1` [Example J4, N-{(1S,5S)-6-hydroxy-5-[{[4-(hydroxymethyl)phenyl]sulfonyl}(3-methylbutyl)amino]-1-methylhexyl}-Nα-(methoxycarbonyl)-β-phenyl-L-phenylalaninamide], the pIC50 at wild-type HIV-1 protease (setting [2]) is 11.15. The IC95 in assay [1] was 6 nM.

For `COC(=O)N[C@@H](Cc1ccccc1Cl)C(=O)N[C@@H](C)CCC[C@@H](CO)N(CCC(C)C)S(=O)(=O)c1ccc(N)cc1` [Example D7, N-{(1S,5S)-5-[[(4-aminophenyl)sulfonyl](3-methylbutyl)amino]-6-hydroxy-1-methylhexyl}-2-chloro-Nα-(methoxycarbonyl)-L-phenylalaninamide], the pIC50 at wild-type HIV-1 protease (setting [2]) is 10.19. The IC95 in assay [1] amounted to 19 nM.

Turning to `COC(=O)N[C@H](C(=O)N[C@H](CCC[C@@H](CO)N(CCC(C)C)S(=O)(=O)c1ccc(Cl)cc1)C1CC1)C(c1ccccc1)c1ccccc1` [Example E4, N-{(1R,5S)-5-[[(4-chlorophenyl)sulfonyl](3-methylbutyl)amino]-1-cyclopropyl-6-hydroxyhexyl}-Nα-(methoxycarbonyl)-β-phenyl-L-phenylalaninamide], on wild-type HIV-1 protease (setting [2]), the pIC50 is 9.70. Besides, in assay [1], the IC95 amounted to 22 nM.

As to `COC(=O)N[C@H](C(=O)N[C@H](CCC[C@@H](CO)N(CC(C)C)S(=O)(=O)c1ccc(CO)cc1)C1CC1)C(c1ccc(F)cc1)c1ccc(F)cc1` [Example J23, N-{(1R,5S)-1-cyclopropyl-6-hydroxy-5-[{[4-(hydroxymethyl)phenyl]sulfonyl}(isobutyl)amino]hexyl}-4-fluoro-β-(4-fluorophenyl)-Nα-(methoxycarbonyl)-L-phenylalaninamide], the pIC50 at wild-type HIV-1 protease (setting [2]) is 10.60. Also, the IC95 in assay [1] was determined as 60 nM.

Take `COC(=O)N[C@H](C(=O)N[C@@H](C)CCC[C@@H](CO)N(CCC(C)C)S(=O)(=O)c1ccc2ncsc2c1)C(c1ccccc1)c1ccccc1` [Example D5, N-{(1S,5S)-5-[(1,3-benzothiazol-6-ylsulfonyl)(3-methylbutyl)amino]-6-hydroxy-1-methylhexyl}-Nα-(methoxycarbonyl)-β-phenyl-L-phenylalaninamide]: the pIC50 on wild-type HIV-1 protease (setting [2]) is 10.38. Further, the IC95 in assay [1] came to 9 nM.

Turning to `COC(=O)N[C@H](C(=O)NC(C)(C)CCC[C@@H](CO)N(C(C)C)S(=O)(=O)c1ccc(N)cc1)C(c1ccccc1)c1ccccc1` [Example L8], the pIC50 at wild-type HIV-1 protease (setting [2]) is 9.57. Further, the IC95 in assay [1] came out at 264 nM.

Consider `COC(=O)N[C@@H](Cc1ccccc1Cl)C(=O)N[C@@H](C)CCC[C@@H](CN)N(CCC(C)C)S(=O)(=O)c1ccc(N)cc1` [Example D4, N-{(1S,5S)-6-amino-5-[[(4-aminophenyl)sulfonyl](3-methylbutyl)amino]-1-methylhexyl}-2-chloro-Nα-(methoxycarbonyl)-L-phenylalaninamide], for which the pIC50 on wild-type HIV-1 protease (setting [2]) is less than 8.52. The IC95 in assay [1] was 270 nM.

For `COC(=O)N[C@H](C(=O)N[C@@H](C)CCC[C@@H](CO)N(C(C)C)S(=O)(=O)c1ccc([C@H](C)O)cc1)C(c1ccccc1)c1ccccc1` [Example K4, N-{(1S,5S)-6-hydroxy-5-[({4-[(1S)-1-hydroxyethyl]phenyl}sulfonyl)(isopropyl)amino]-1-methylhexyl}-Nα-(methoxycarbonyl)-β-phenyl-L-phenylalaninamide], on wild-type HIV-1 protease (setting [2]), the negative-log IC50 (pIC50) was 10.82. Further, in assay [1], the IC95 amounted to 19 nM.

Turning to `CCN([C@H](CO)CCC[C@@H](NC(=O)[C@@H](NC(=O)OC)C(c1ccccc1)c1ccccc1)C(F)(F)F)S(=O)(=O)c1ccc(N)cc1` [Example H4, N-[(1R,5S)-5-[[(4-aminophenyl)sulfonyl](ethyl)amino]-6-hydroxy-1-(trifluoromethyl)hexyl]-Nα-(methoxycarbonyl)-β-phenyl-L-phenylalaninamide], the pIC50 on wild-type HIV-1 protease was 9.76. Also, the IC95 in assay [1] is 29 nM.

Regarding `COC(=O)N[C@H](C(=O)N[C@H](CCC[C@@H](CO)N(CCC(C)C)S(=O)(=O)c1ccc(CO)cc1)C(C)C)C(c1ccccc1)c1ccccc1` [Example J9, N-{(1R,5S)-6-hydroxy-5-[{[4-(hydroxymethyl)phenyl]sulfonyl}(3-methylbutyl)amino]-1-isopropylhexyl}-Nα-(methoxycarbonyl)-β-phenyl-L-phenylalaninamide], the pIC50 at wild-type HIV-1 protease (setting [2]) was 10.16. Besides, the IC95 in assay [1] turned out to be 23 nM.

In the case of `CN[C@H](C(=O)N[C@H](CCC[C@@H](CO)N(CCC(C)C)S(=O)(=O)c1ccc(CO)cc1)C(C)C)C(c1ccccc1)c1ccccc1` [Example J29, N-{(1R,5S)-6-hydroxy-5-[{[4-(hydroxymethyl)phenyl]sulfonyl}(3-methylbutyl)amino]-1-isopropylhexyl}-Nα-methyl-β-phenyl-L-phenylalaninamide], the pIC50 at wild-type HIV-1 protease (setting [2]) is 10.41. Besides, the IC95 in assay [1] was 16 nM.

For `CCCN([C@H](CO)CCC[C@H](CC)NC(=O)[C@@H](NC(=O)OC)C(c1ccccc1)c1ccccc1)S(=O)(=O)c1ccc(CO)cc1` [Example J34, N-{(1S,5S)-1-ethyl-6-hydroxy-5-[{[4-(hydroxymethyl)phenyl]sulfonyl}(propyl)amino]hexyl}-Nα-(methoxycarbonyl)-β-phenyl-L-phenylalaninamide], at wild-type HIV-1 protease (setting [2]), the pIC50 is 10.39. Moreover, the IC95 in assay [1] worked out at 20 nM.

Turning to `CCN([C@H](CO)CCC[C@H](C)NC(=O)[C@H](Cc1ccccc1Cl)NC(=O)OC)S(=O)(=O)c1ccc(CO)cc1` [Example G9, 2-chloro-N-[(1S,5S)-5-(ethyl{[4-(hydroxymethyl)phenyl]sulfonyl}amino)-6-hydroxy-1-methylhexyl]-Nα-(methoxycarbonyl)-L-phenylalaninamide], the pIC50 at wild-type HIV-1 protease (setting [2]) is 9.20. The IC95 in assay [1] was determined as 102 nM.

On to `CCCN([C@H](CO)CCC[C@H](CC)NC(=O)[C@@H](N)C(c1ccccc1)c1ccccc1)S(=O)(=O)c1ccc(CO)cc1` [Example J39, N-{(1S,5S)-1-ethyl-6-hydroxy-5-[{[4-(hydroxymethyl)phenyl]sulfonyl}(propyl)amino]hexyl}-β-phenyl-L-phenylalaninamide], for which the pIC50 on wild-type HIV-1 protease (setting [2]) was 10.80. Besides, the IC95 in assay [1] worked out at 39 nM.

Source of the values: US20100093811A1 (priority 2007, published 2010).
